Experimental data published in the NIST ThermoML archive (doi:10.1007/s10765-009-0667-2).
Values joined by “and” are separate entries in the source; they are usually repeats but may differ in a detail not shown here. Identical values can stand only once.

Tests used:
[1] = 101 kPa, Liquid; for mass density: Vibrating tube method
[2] = xn = mol fraction of the nth substance listed; details: 101 kPa, Liquid; for mass density: Vibrating tube method

CCc1ccccc1 [ethylbenzene]
[1]
Details	mass density [kg/m3]	viscosity [mPa·s]
308.15 K	853.7	0.5652
313.15 K	849.5	0.5294
318.15 K	849.5	–

CCCCCCC [heptane]
[1]
Details	mass density [kg/m3]	viscosity [mPa·s]
308.15 K	671.3	0.3497
313.15 K	667.1	0.3329

CCCCCCC [heptane] + CCc1ccccc1
[2], x1 = 1
Details	mass density [kg/m3]	viscosity [mPa·s]
308.15 K	671.3	0.3497
313.15 K	667.1	0.3329

C1CCCCCCC1 [cyclooctane] + CCc1ccccc1
[2]
Details	mass density, 308.15 K [kg/m3]	mass density, 313.15 K [kg/m3]	viscosity, 308.15 K [mPa·s]	viscosity, 313.15 K [mPa·s]
x2 = 0	823.6	819.7	1.803	1.636
x2 = 0.0907	824.8	820.9	1.487	1.356
x2 = 0.2033	827.1	823.2	1.206	1.11
x2 = 0.3072	829.5	825.6	1.022	0.9578
x2 = 0.3701	831.2	827.2	0.9433	0.8765
x2 = 0.4761	834.2	830.2	0.8369	0.7835
x2 = 0.5798	837.5	833.4	0.7568	0.7089
x2 = 0.7008	841.7	837.6	0.6736	0.6403
x2 = 0.7922	845.1	840.9	0.6351	0.5979
x2 = 0.8908	849	844.8	0.5958	0.5629

c1ccccc1 [benzene]
[1]
Details	mass density [kg/m3]	viscosity [mPa·s]
308.15 K	862.9	0.5272
313.15 K	857.7	0.4942

CCc1ccccc1 [ethylbenzene] + C1CCCCCCC1
[2], x1 = 1
Details	mass density [kg/m3]	viscosity [mPa·s]
308.15 K	853.7	0.5652
313.15 K	849.5	0.5294

Cc1ccccc1 [toluene]
[1]
Details	mass density [kg/m3]	viscosity
308.15 K	852.8	0.494 mPa·s
313.15 K	848.3	0.4676 mPa·s and 0.4755 mPa·s
318.15 K	848.3	–

c1ccccc1 [benzene] + Cc1ccccc1
[2]
Details	mass density, 308.15 K [kg/m3]	mass density, 313.15 K [kg/m3]	viscosity, 308.15 K [mPa·s]	viscosity, 313.15 K [mPa·s]
x1 = 0.0403	853.1	848.6	0.4943	0.468
x1 = 0.1393	853.7	849.1	0.4998	0.4681
x1 = 0.2551	854.5	849.9	0.4968	0.4693
x1 = 0.3116	855	850.3	0.4968	0.469
x1 = 0.3863	855.7	850.9	0.4977	0.4705
x1 = 0.5033	856.6	851.8	0.503	0.4747
x1 = 0.6139	857.8	852.9	0.5078	0.4785
x1 = 0.7301	859.1	854.1	0.5166	0.4813
x1 = 0.8551	860.8	855.7	0.5227	0.487
x1 = 1	862.9	857.7	0.5272	0.4942

C1CCCCCCC1 [cyclooctane] + CCCCCCC
[2]
Details	mass density, 308.15 K [kg/m3]	mass density, 313.15 K [kg/m3]	viscosity, 308.15 K [mPa·s]	viscosity, 313.15 K [mPa·s]
x2 = 0	823.6	819.7	1.803	1.636
x2 = 0.0938	807.7	803.8	1.405	1.288
x2 = 0.1897	793	789.1	1.125	1.044
x2 = 0.2896	777.5	773.6	0.9246	0.8605
x2 = 0.3979	760.8	756.8	0.7613	0.7127
x2 = 0.4949	746.1	742.2	0.6608	0.6207
x2 = 0.5964	730.9	726.9	0.5725	0.5389
x2 = 0.6919	716.7	712.7	0.5028	0.4754
x2 = 0.7795	703.6	699.7	0.4487	0.4256
x2 = 0.8934	686.9	682.8	0.4002	0.3754

Cc1ccccc1 [toluene] + CCCCCCC
[2]
Details	mass density, 308.15 K [kg/m3]	mass density, 313.15 K [kg/m3]	viscosity, 308.15 K [mPa·s]	viscosity, 313.15 K [mPa·s]
x2 = 0	852.8	848.3	0.494	0.4676
x2 = 0.0901	830.9	826.5	0.4631	0.4392
x2 = 0.1949	807	802.6	0.4406	0.4129
x2 = 0.299	786.6	782.2	0.415	0.3944
x2 = 0.3959	765.9	761.6	0.3967	0.377
x2 = 0.4836	749.6	745.4	0.3861	0.3668
x2 = 0.5809	732.8	728.6	0.3811	0.3562
x2 = 0.6809	716.6	712.5	0.3666	0.3488
x2 = 0.792	699.8	695.6	0.3575	0.341
x2 = 0.8884	686.1	682	0.3605	0.3367

c1ccccc1 [benzene] + CCCCCCC
[2]
Details	mass density, 308.15 K [kg/m3]	mass density, 313.15 K [kg/m3]	viscosity, 308.15 K [mPa·s]	viscosity, 313.15 K [mPa·s]
x1 = 0.1099	683.6	679.4	0.3518	0.3342
x1 = 0.2052	695.3	691.1	0.3593	0.3356
x1 = 0.2896	706.6	702.4	0.3562	0.3387
x1 = 0.4212	726.5	722.1	0.3632	0.345
x1 = 0.5078	740.9	736.4	0.3724	0.3534
x1 = 0.6087	760	755.4	0.3925	0.3667
x1 = 0.7263	785.5	780.8	0.4094	0.3879
x1 = 0.7936	801.9	797.1	0.4262	0.4031
x1 = 0.8987	830.6	825.6	0.4734	0.4408
x1 = 1	862.9	857.7	0.5272	0.4942

c1ccccc1 [benzene] + C1CCCCCCC1
[2], x1 = 1
Details	mass density [kg/m3]	viscosity [mPa·s]
308.15 K	862.9	0.5272
313.15 K	857.7	0.4942

Cc1ccccc1 [toluene] + C1CCCCCCC1
[2], x1 = 1
Details	mass density [kg/m3]	viscosity [mPa·s]
308.15 K	852.8	0.494
313.15 K	848.3	0.4676

CCCCCCC [heptane] + C1CCCCCCC1
[2], x1 = 1
Details	mass density [kg/m3]	viscosity [mPa·s]
308.15 K	671.3	0.3497
313.15 K	667.1	0.3329

C1CCCCCCC1 [cyclooctane]
[1]
Details	mass density [kg/m3]	viscosity [mPa·s]
308.15 K	823.6	1.803
313.15 K	819.7	1.636

Cc1ccccc1 [toluene] + c1ccccc1
[2], x2 = 0
Details	mass density [kg/m3]	viscosity [mPa·s]
308.15 K	852.8	0.494
313.15 K	848.3	0.4676

CCc1ccccc1 [ethylbenzene] + c1ccccc1
[2]
Details	mass density, 308.15 K [kg/m3]	mass density, 313.15 K [kg/m3]	viscosity, 308.15 K [mPa·s]	viscosity, 313.15 K [mPa·s]
x2 = 0	853.7	849.5	0.5652	0.5294
x2 = 0.0877	854.1	849.8	0.5584	0.5282
x2 = 0.1855	854.6	850.2	0.5563	0.5234
x2 = 0.295	855.2	850.8	0.5472	0.5172
x2 = 0.4137	856	851.5	0.5392	0.5096
x2 = 0.498	856.6	852.1	0.5382	0.508
x2 = 0.5965	857.5	852.8	0.5382	0.5039
x2 = 0.7108	858.7	853.9	0.5308	0.4996
x2 = 0.7904	859.7	854.8	0.5263	0.4954
x2 = 0.8983	861.2	856.2	0.5309	0.4949

c1ccccc1 [benzene] + CCc1ccccc1
[2], x1 = 1
Details	mass density [kg/m3]	viscosity [mPa·s]
308.15 K	862.9	0.5272
313.15 K	857.7	0.4942
